Data from US7135476B2, “Spiro tetrahydroquinazolines and dihydrocyclopentapyrimidines as CRF antagonists” (Roche Palo Alto LLC, priority 2003, dated 2006).

Biological target: T1, CRF1 Receptor (Homo sapiens, UniProt P34998)
T1 construct: endogenous in cells; host or cells: IMR-32 human neuroblastoma cells (membrane preparation)
T1 sequence (P34998 24-415): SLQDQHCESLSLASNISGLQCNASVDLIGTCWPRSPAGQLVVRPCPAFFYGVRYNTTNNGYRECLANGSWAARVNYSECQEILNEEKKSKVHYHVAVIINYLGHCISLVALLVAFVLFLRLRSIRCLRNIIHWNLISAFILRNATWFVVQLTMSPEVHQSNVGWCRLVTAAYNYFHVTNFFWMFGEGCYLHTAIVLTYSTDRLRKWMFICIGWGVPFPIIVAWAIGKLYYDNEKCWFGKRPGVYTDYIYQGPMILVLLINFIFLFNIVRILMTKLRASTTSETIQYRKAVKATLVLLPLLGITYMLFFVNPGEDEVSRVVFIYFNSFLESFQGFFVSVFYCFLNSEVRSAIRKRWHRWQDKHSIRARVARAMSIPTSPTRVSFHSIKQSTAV
Test: CRF1 Receptor Binding Assay
Conditions: competition with [125I]Tyr0-ovine CRF, human IMR-32 neuroblastoma cell membranes; pKi derived from pIC50
Protocol: CRF1 Receptor Binding Assay
Human IMR-32 neuroblastoma cells are grown to 80% confluence in MEM medium containing 10% heat-inactivated FBS, 1 mM Sodium Pyruvate, and 0.1 mM nonessential amino acids. Cell membranes are prepared according the method of Dieterich and DeSouza (1996). The cells (˜5E+9) are resuspended in 10 volumes of wash buffer (5 mM Tris HCl, 10 mM MgCl2, 2 mM EGTA, pH 7.4 at RT), homogenized with a Polytron, and then centrifuged at 45,000 G for 20 min at 4° C. The membrane pellets are washed twice with wash buffer (45,000 G for 20 min at 4° C.) and then resuspended (50 mM Tris HCl, 10 mM MgCl2, 2 mM EGTA, pH 7.4 at RT). Protein concentration is determined using Pierce reagents and BSA as standard. […]
The competition binding assay is performed in a final volume of 250 μl, which contains assay buffer (50 mM Tris-HCl, 10 mM MgCl2, 2 mM EGTA, 0.2% BSA, 0.1 mM bacitracin and 100 kIU/mL aprotinin pH 7.2 at R.T.), 0.05 nM [^125I]Tyr^0-ovine CRF (Du Pont New England Nuclear), 50 μg of membrane protein, and test compound at various concentrations. Non-specific binding is determined with 1 uM hCRF. […] Unbound radioactivity is removed by four rapid washes (0.8 ml/well) with wash buffer. The radioactivity is quantified using a Packard TopCount. Data are analyzed using non-linear iterative curve fitting to obtain IC50 and Hill slope values. […]

SMILES: CCCN(CC1CC1)c1nc(C)nc2c1CCCC21CCc2ccccc21 (stereo not shown) [Compound 1, (2,3,5′,6′,-Tetrahydro)-2′-methyl-4′-(N-propyl-N-cyclo-propylmethyl-amino)spiro[(1H)indene-1,8′-(7H)quina-zoline]]
- Ki: 123 nM
